Reference: PubChem BioAssay AID248 (DTP/NCI, 2004)
Values joined by “and” are separate entries in the source; they are usually repeats but may differ in a detail not shown here. Equal values may be shown once. Inconclusive results and toxic doses are left out. Rule as the data show it: active = T/C of 150% or more; inactive = T/C below 125%.

Test system: L1210 leukemia ip in BDF1 mice, survival T/C
Assay: NCI In Vivo Anticancer Drug Screen. Data for tumor model L1210 Leukemia (intraperitoneal) in B6D2F1 (BDF1) mice
Details: endpoint: mean survival time, higher = longer survival
How it was run: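 Tumor cells were implanted, animals were treated, and survival was followed. The result divides the treated measurement by the vehicle-control measurement.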

[1] = dose: 100.0 mg/kg/injection, schedule: Q01DX009 (ip), vehicle: saline
[2] = dose: 100.0 mg/kg/injection, schedule: Q04DX003 (ip), vehicle: saline with Tween-80
[3] = dose: 200.0 mg/kg/injection, schedule: Q01DX009 (ip), vehicle: saline
[4] = dose: 200.0 mg/kg/injection, schedule: Q04DX003 (ip), vehicle: saline with Tween-80
[5] = dose: 400.0 mg/kg/injection, schedule: Q01DX009 (ip), vehicle: saline
[6] = dose: 400.0 mg/kg/injection, schedule: Q04DX003 (ip), vehicle: saline with Tween-80
[7] = dose: 100.0 mg/kg/injection, schedule: Q01DX001 (ip), vehicle: saline
[8] = dose: 100.0 mg/kg/injection, schedule: Q04DX003 (ip), vehicle: saline
[9] = dose: 200.0 mg/kg/injection, schedule: Q01DX001 (ip), vehicle: saline
[10] = dose: 200.0 mg/kg/injection, schedule: Q04DX003 (ip), vehicle: saline
[11] = dose: 400.0 mg/kg/injection, schedule: Q01DX001 (ip), vehicle: saline
[12] = dose: 400.0 mg/kg/injection, schedule: Q04DX003 (ip), vehicle: saline
[13] = dose: 100.0 mg/kg/injection, schedule: Q04DX003 (ip), vehicle: Klucel (hydroxypropylcellulose) (HPC)
[14] = dose: 200.0 mg/kg/injection, schedule: Q04DX003 (ip), vehicle: Klucel (hydroxypropylcellulose) (HPC)
[15] = dose: 100.0 mg/kg/injection, schedule: Q01DX001 (ip), vehicle: saline with Tween-80
[16] = dose: 400.0 mg/kg/injection, schedule: Q04DX003 (ip), vehicle: Klucel (hydroxypropylcellulose) (HPC)
[17] = dose: 100.0 mg/kg/injection, schedule: Q01DX001 (ip), vehicle: carboxymethylcellulose (CMC)
[18] = dose: 200.0 mg/kg/injection, schedule: Q01DX001 (ip), vehicle: carboxymethylcellulose (CMC)
[19] = dose: 400.0 mg/kg/injection, schedule: Q01DX001 (ip), vehicle: carboxymethylcellulose (CMC)
[20] = dose: 100.0 mg/kg/injection, schedule: Q01DX009 (ip), vehicle: Klucel (hydroxypropylcellulose) (HPC)
[21] = dose: 200.0 mg/kg/injection, schedule: Q01DX009 (ip), vehicle: Klucel (hydroxypropylcellulose) (HPC)
[22] = dose: 400.0 mg/kg/injection, schedule: Q01DX009 (ip), vehicle: Klucel (hydroxypropylcellulose) (HPC)

Measured: T/C

O=C(O)C1OC1c1ccccc1 (centres undefined)
inactive: [1] 107 % of control | [2] 98 % of control | [3] 109 % of control | [4] 98 % of control | [5] 104 % of control | [6] 100 % of control

CCCN
inactive: [7] 107 % of control | [1] 106 % of control and 107 % of control | dose: 100.0 mg/kg/injection, schedule: Q04DX002 (ip), vehicle: saline 103 % of control and 108 % of control | [8] 103 % of control | [9] 100 % of control | [3] 93 % of control and 109 % of control | dose: 200.0 mg/kg/injection, schedule: Q04DX002 (ip), vehicle: saline 99 % of control and 106 % of control | [10] 96 % of control | [11] 105 % of control | [5] 111 % of control and 117 % of control | dose: 400.0 mg/kg/injection, schedule: Q04DX002 (ip), vehicle: saline 105 % of control and 108 % of control | [12] 96 % of control

CC(C)NC(=O)c1ccc(/C=N/N(C)C)cc1
inactive: dose: 25.0 mg/kg/injection, schedule: Q04DX003 (ip), vehicle: Klucel (hydroxypropylcellulose) (HPC) 104 % of control | dose: 50.0 mg/kg/injection, schedule: Q04DX003 (ip), vehicle: Klucel (hydroxypropylcellulose) (HPC) 106 % of control | [13] 95 % of control | [14] 101 % of control

O=[N+]([O-])c1ccc(N/N=C\c2c(Cl)c(Cl)c(/C=N/Nc3ccc([N+](=O)[O-])cc3)c(Cl)c2Cl)cc1
inactive: dose: 50.0 mg/kg/injection, schedule: Q01DX001 (ip), vehicle: saline 91 % of control | [7] 91 % of control | [9] 94 % of control | [11] 94 % of control

COc1cc(/C=N/Nc2ccc([N+](=O)[O-])cc2)cc(OC)c1OC
inactive: [2] 86 % of control | [4] 89 % of control | [6] 86 % of control

Cc1ncc(CO)c(Nc2ccccc2)n1
inactive: dose: 100.0 mg/kg/injection, schedule: Q01DX001 (ip), vehicle: Klucel (hydroxypropylcellulose) (HPC) 90 % of control | dose: 200.0 mg/kg/injection, schedule: Q01DX001 (ip), vehicle: Klucel (hydroxypropylcellulose) (HPC) 108 % of control | dose: 400.0 mg/kg/injection, schedule: Q01DX001 (ip), vehicle: Klucel (hydroxypropylcellulose) (HPC) 96 % of control

C=CC(C)(C)C(=C)C
inactive: [8] 110 % of control | [10] 108 % of control | [12] 101 % of control

Cc1ncc(C(=O)c2ccccc2)n1Cc1ccccc1
inactive: [15] 88 % of control | [2] 94 % of control | dose: 200.0 mg/kg/injection, schedule: Q01DX001 (ip), vehicle: saline with Tween-80 90 % of control | dose: 200.0 mg/kg/injection, schedule: Q01DX009 (ip), vehicle: saline with Tween-80 94 % of control and 107 % of control | [4] 92 % of control | dose: 400.0 mg/kg/injection, schedule: Q01DX001 (ip), vehicle: saline with Tween-80 95 % of control | dose: 400.0 mg/kg/injection, schedule: Q01DX009 (ip), vehicle: saline with Tween-80 96 % of control and 100 % of control | [6] 90 % of control

Oc1c(Cl)cc(C(c2cc(Cl)c(O)c(Cl)c2)c2ccccn2)cc1Cl
inactive: [13] 100 % of control | [14] 104 % of control | [16] 93 % of control

COc1ccc(Br)cc1CC=O
inactive: [17] 103 % of control | dose: 177.6 mg/kg/injection, schedule: Q01DX001 (ip), vehicle: carboxymethylcellulose (CMC) 95 % of control and 105 % of control | [18] 103 % of control | dose: 266.8 mg/kg/injection, schedule: Q01DX001 (ip), vehicle: carboxymethylcellulose (CMC) 97 % of control and 103 % of control | [19] 95 % of control and 103 % of control | dose: 600.0 mg/kg/injection, schedule: Q01DX001 (ip), vehicle: carboxymethylcellulose (CMC) 97 % of control and 103 % of control

CCC/C(=N\NC(N)=O)C(OC)OC
inactive: dose: 100.0 mg/kg/injection, schedule: Q01DX001 (ip), vehicle: other 94 % of control | dose: 200.0 mg/kg/injection, schedule: Q01DX001 (ip), vehicle: other 105 % of control | dose: 400.0 mg/kg/injection, schedule: Q01DX001 (ip), vehicle: other 92 % of control

ClC(Cl)(Cl)c1cccc(-c2nc(NCCCN3CCCC3)nc(C(Cl)(Cl)Cl)n2)c1
inactive: [20] 102 % of control | [21] 100 % of control | [22] 86 % of control

CCCCCC[C@@H](O)C/C=C\CCCCCCCC(=O)OC
inactive: [7] 97 % of control | [9] 97 % of control | [11] 103 % of control

O=C(C[n+]1c(Cl)ccc2ccccc21)c1ccccc1
inactive: dose: 75.0 mg/kg/injection, schedule: Q01DX001 (ip), vehicle: other 94 % of control | dose: 150.0 mg/kg/injection, schedule: Q01DX001 (ip), vehicle: other 100 % of control

CCCCCCC(C)S(=O)(=O)c1ccc(C)cc1 (centres undefined)
inactive: [7] 87 % of control and 94 % of control | [9] 90 % of control and 91 % of control | [11] 94 % of control

Cc1cc(Cl)ccc1NS(=O)(=O)c1ccccc1
inactive: [20] 107 % of control | [13] 98 % of control | [21] 98 % of control | [14] 103 % of control | [22] 96 % of control | [16] 97 % of control

CCC(CC)C(=O)OCC(C)(C)C
inactive: [17] 96 % of control | [18] 104 % of control | [19] 96 % of control

Nc1nc(CCl)nc(Nc2ccccc2)n1
inactive: [20] 105 % of control | [13] 104 % of control | [21] 86 % of control | [14] 98 % of control

CCC(C)C(CN)(CCN(C)C)Cc1cccc2ccccc12 (centres undefined)
inactive: dose: 12.5 mg/kg/injection, schedule: Q04DX003 (ip), vehicle: saline 93 % of control | dose: 25.0 mg/kg/injection, schedule: Q04DX003 (ip), vehicle: saline 96 % of control | dose: 50.0 mg/kg/injection, schedule: Q04DX003 (ip), vehicle: saline 101 % of control

CC(C)=CCCC(=O)Oc1ccccc1C(=O)O
inactive: [8] 99 % of control | [10] 91 % of control | [12] 93 % of control

O=c1[nH]nnc2nc(Cc3ccc([N+](=O)[O-])cc3)[nH]c12
inactive: [15] 98 % of control

Nc1nc2[nH]ncc2c(=O)[nH]1
inactive: dose: 50.0 mg/kg/injection, schedule: Q01DX001 (ip), vehicle: carboxymethylcellulose (CMC) 104 % of control | [17] 107 % of control | [18] 93 % of control | [19] 96 % of control

O=C(Nc1ccc(C(=O)c2ccccc2)cc1)c1ccccc1
inactive: [13] 104 % of control | [14] 108 % of control | [16] 98 % of control

CCOC(=O)/C(O)=C\c1nnc(Cl)cc1Cl
inactive: dose: 75.0 mg/kg/injection, schedule: Q04DX002 (ip), vehicle: Klucel (hydroxypropylcellulose) (HPC) 93 % of control | dose: 150.0 mg/kg/injection, schedule: Q04DX002 (ip), vehicle: Klucel (hydroxypropylcellulose) (HPC) 96 % of control | dose: 300.0 mg/kg/injection, schedule: Q04DX002 (ip), vehicle: Klucel (hydroxypropylcellulose) (HPC) 116 % of control

S=C(S)NCCc1ccccn1
inactive: [2] 95 % of control | [4] 87 % of control | [6] 98 % of control
